# Reference: patent US11999737B2, “Kinase inhibitors and related methods of use” (Duke University, priority 2014, dated 2024)
# What was measured:
# IRAK4 = biological target: T1, IRAK4 (Homo sapiens, UniProt Q9NWZ3); assay: 33P-ATP filter-binding kinase assay
# T1 sequence (Q9NWZ3 1-460): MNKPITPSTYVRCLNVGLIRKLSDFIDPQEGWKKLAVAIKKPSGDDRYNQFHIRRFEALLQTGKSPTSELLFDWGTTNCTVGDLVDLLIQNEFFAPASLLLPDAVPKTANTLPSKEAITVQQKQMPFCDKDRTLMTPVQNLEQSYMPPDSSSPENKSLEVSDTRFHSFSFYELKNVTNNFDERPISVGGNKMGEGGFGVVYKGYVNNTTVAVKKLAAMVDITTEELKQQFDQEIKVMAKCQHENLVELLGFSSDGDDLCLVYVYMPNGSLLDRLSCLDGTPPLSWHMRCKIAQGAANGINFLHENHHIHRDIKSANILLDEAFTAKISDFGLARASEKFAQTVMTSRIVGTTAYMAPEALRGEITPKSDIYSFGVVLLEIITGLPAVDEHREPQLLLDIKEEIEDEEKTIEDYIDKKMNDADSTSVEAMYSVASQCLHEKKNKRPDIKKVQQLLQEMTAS
# [1] = test system: posterior cerebral arteries of spontaneous hypertensive rat (SHR); assay: Pressure myography of posterior cerebral arteries of SHR, enhanced myogenic tone; details: HS-38 10 μM, 10-wk SHR
# Description: Data are means (n=2 animals) for size-matched vessels from 10-wk SHR rats. The average maximum passive diameters at 120 mmHg were 280 μm. Representative pressure-induced changes in arteriolar diameter (A) as well as mean diameter-pressure relationships (B) and active myogenic constriction (C) are shown.
# Posterior cerebral arteries (PCAs) from male Sprague-Dawley rats were isolated and mounted/cannulated for pressure myography. Briefly, 2-3 mm arterial segments are mounted across glass canuli in an arteriograph chamber attached to a pressure myograph (Living Systems, Burlington, Vt. USA) and tied in place using silk suture. Endothelial cells are removed by passing a stream of air bubbles through the vessel lumen (this methodology was confirmed by loss of dilatory response to acetylcholine). […] After this, arteriole myogenic responses (i.e., vessel diameter) to increasing luminal pressure were monitored ex vivo in the absence or presence of HS-38. […] This series of steps is repeated in normal Krebs buffer, with the addition of ZIPK inhibitor (i.e., 10 μM HS-38) and finally in Ca^2+ free Krebs (same constitution as normal Krebs with no CaCl2 and added EGTA (2 mM), Data are collected as average vessel diameter over stable region of each step and expressed as a percentage of the maximal passive vessel diameter (120 mmHg, 0Ca^2+) to standardize for variation in size of […]. […]
# [2] = test system: spontaneous hypertensive rat (SHR); assay: HS-38 treatment of spontaneous hypertensive rats, vessel properties; format: in vivo
# Experimental: The myogenic response and ZIP-dependency of pressure autoregulation were assessed. Two age groups, 8-10 weeks and 18-20 weeks, were used to permit identification of age-dependent alterations in myogenic responses associated with the onset of diabetes/hypertension and after the diseases had become fully established. Two rat models were used, spontaneous hypertensive rat(SHR) model, and Goto-Kakizaki (GK) rat model of type 2 diabetes (T2D). […] HS-38 treatment attenuated myogenic hypercontractility in the cremaster artery of spontaneously-hypertensive rats (SHR; FIG. 33; WKY=Wistar Kyoto rat, control).
# No effect of HS38 was observed on the ratio of wall thickness/vessel diameter in the SHR mesenteric artery.
smiles,measurement,setting,value
CC(Sc1nc2c(cnn2-c2cccc(Cl)c2)c(=O)[nH]1)C(N)=O (centres unmarked) [HS38],fold less potent than against DAPK1 and PIM3,IRAK4,~10 fold
same,IC50,"IRAK4; mean ± S.D., n = 2",1400 ± 400 nM
same,activity at 10 µM,IRAK4; read-out: % Activity (10 μM HS38),20%
same,enhanced myogenic tone at low basal luminal pressures,[1],can be attenuated
same,circumferential strain,[2]; HS-38 treatment,increased
same,vessel narrowing seen in hypertension,[2]; HS-38 treatment,partially reversed
same,myogenic hypercontractility in the cremaster artery,"[2]; HS-38 treatment, SHR",attenuated
same,ratio of wall thickness/vessel diameter,[2]; SHR mesenteric artery,No effect
